Test results: ChEMBL document CHEMBL1136755, “Mapping property distributions of molecular surfaces: algorithm and evaluation of a novel 3D quantitative structure-activity relationship technique” (J Med Chem, 2003)
pEC50: −log10 of the molar value.

tested on: Oryctolagus cuniculus; assay: Eye irritation potential accessed using Draize in vivo rabbit eye irritation test; assay type: functional

Row | SMILES | MES
1 | CC1CCCC1 [METHYLCYCLOPENTANE] | 0.41
2 | CCCCCCO [1-HEXANOL] | 8.13
3 | CCCCCCCCCCCC [DODECANE] | 0.45
4 | C1=C\CCCCCC/1 [CYCLOOCTENE] | 0.43
5 | CCOCC(=O)O | 2.03
6 | CCC(C)(C)C(=O)O [DIMEBUTIC ACID] | 5.59
7 | CCCCC(CC)CO (stereo not given) | 7.82
8 | O=C1c2ccccc2C(=O)N1CCCCBr | 0.19
9 | CCOC(=O)C(C)(C)C | 0.63
10 | C/C1=C/C=C\C(C)CCC1 (stereo not given) | 0.44
11 | CCCCOC(C)=O [ACETIC ACID BUTYL ESTER] | 0.99
12 | O=[N+]([O-])c1ccc(F)cc1F | 0.4
13 | OC1CCCCC1 [CYCLOHEXANOL] | 8.29
14 | CCCCCC(C)=O | 2.26
15 | CCCC(C)CC (stereo not given) | 0.1
16 | CC(O)CO (stereo not given) [PROPYLENE GLYCOL] | 0.1
17 | COC(=O)C(C)(C)C | 0.36
18 | Cc1ccccc1 [TOLUENE] | 0.96
19 | CCC(C)=O [BUTANONE] | 4.48

Row | SMILES | MES
20 | CCOC(C)=O [ETHYL ACETATE] | 1.47
21 | CCOC(=O)C(C)C(C)=O (stereo not given) | 2.55
22 | C=CCCC=C | 0.55
23 | C=CCCCCCCC=C | 0.37
24 | C=Cc1ccccc1 [STYRENE] | 0.77
25 | CC(=O)CC(C)C [METHYL ISOBUTYL KETONE] | 0.59
26 | CC(C)c1cccc(C(C)C)c1 | 0.38
27 | COC(C)=O [ACETIC ACID METHYL ESTER] | 3.14
28 | CC(C)CO [ISOBUTANOL] | 6.44
29 | Cc1ccc(C)cc1 [P-XYLENE] | 1.1
30 | CC(C)O [ISOPROPYL ALCOHOL] | 2.34
31 | CCCCO [BUTYL ALCOHOL] | 5.47
32 | Nc1ccc(F)cc1 | 6.62
33 | CCCC(C)C | 0.26
34 | CC(C)=O [ACETONE] | 4.83
35 | CCCCOCCO [BUTOXYETHANOL] | 8.99
36 | CCC(C)c1ccccc1 (stereo not given) | 0.31
37 | OCC(O)CO [GLYCERIN] | 0.12
38 | CCc1cccc(C)c1 | 0.32

molecular target: T1, Muscarinic acetylcholine receptor M2 (Sus scrofa, UniProt P06199); assay: Ability to dissociate radioligand [3H]NMS from muscarinic acetylcholine receptor M2 of porcine heart
T1 sequence (P06199 whole entry): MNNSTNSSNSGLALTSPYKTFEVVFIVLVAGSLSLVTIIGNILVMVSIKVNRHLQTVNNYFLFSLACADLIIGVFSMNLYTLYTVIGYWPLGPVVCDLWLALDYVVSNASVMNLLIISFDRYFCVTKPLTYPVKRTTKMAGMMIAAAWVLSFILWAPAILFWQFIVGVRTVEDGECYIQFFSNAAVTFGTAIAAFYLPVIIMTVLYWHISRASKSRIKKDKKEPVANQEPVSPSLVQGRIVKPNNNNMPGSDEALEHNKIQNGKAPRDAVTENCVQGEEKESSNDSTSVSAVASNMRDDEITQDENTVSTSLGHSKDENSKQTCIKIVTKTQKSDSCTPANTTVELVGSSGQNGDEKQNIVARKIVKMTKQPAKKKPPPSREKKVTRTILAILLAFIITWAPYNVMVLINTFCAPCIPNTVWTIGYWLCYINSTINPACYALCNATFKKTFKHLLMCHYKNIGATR

Row | SMILES | pEC50
39 | O=C1c2ccccc2C(=O)N1CCCN(CCCCCCN(CCCc1ccccc1)CCCN1C(=O)c2ccccc2C1=O)CCCc1ccccc1 | 6.00
40 | C[N+](C)(CCCCCCC[N+](C)(C)CCCN1C(=O)[C@@H]2CCCC[C@H]2C1=O)CCCN1C(=O)[C@H]2CCCC[C@@H]2C1=O | 6.10
41 | C[N+](C)(CCCCCC[N+](C)(C)CCCN1C(=O)c2cccc3cccc(c23)C1=O)CCCN1C(=O)c2ccccc2C1=O | 7.20
42 | CC1CC(=O)N(CCC[N+](C)(C)CCCCCCC[N+](C)(C)CCCN2C(=O)CC(C)C2=O)C1=O (stereo not given) | 4.50
43 | C[N+](C)(CCCCCC[N+](C)(C)CCCN1C(=O)c2cccnc2C1=O)CCCN1C(=O)c2ccccc2C1=O | 5.63
44 | N#CCCN(CCCCCCN(CCC#N)CCCN1C(=O)c2ccccc2C1=O)CCCN1C(=O)c2ccccc2C1=O | 6.13
45 | C[N+](C)(CCCCCC[N+](C)(C)CCCN1C(=O)c2cc3ccccc3cc2C1=O)CCCN1C(=O)c2ccccc2C1=O | 6.83
46 | CC[N+](C)(C)CCCCCC[N+](C)(C)CCCN1C(=O)c2ccccc2C1=O | 5.00
47 | C[N+](C)(CCCCCCO)CCCN1C(=O)c2ccccc2C1=O | 4.62
48 | COc1ccc(CCN(C)CCCC(C#N)(c2ccc(OC)c(OC)c2)C(C)C)cc1OC (stereo not given) | 4.51
49 | C[N+](C)(CCCCCC[N+](C)(C)CCCN1c2ccccc2C(=O)NC1c1ccccc1)CCCN1c2ccccc2C(=O)NC1c1ccccc1 (stereo not given) | 6.13
50 | CCCCCC[N+](C)(C)CCCN1C(=O)c2ccccc2C1=O | 4.27
51 | C[N+](C)(CCCCCCC[N+](C)(C)CCCN1C(=O)[C@H]2CCCC[C@H]2C1=O)CCCN1C(=O)[C@H]2CCCC[C@H]2C1=O | 5.35
52 | Cc1ccc2c(c1)C(=O)N(CCCN(CCCCCCN(CCCN1C(=O)c3ccc(C)cc3C1=O)C1CCCCC1)C1CCCCC1)C2=O | 7.22
53 | C[N+](C)(CCCCCC[N+](C)(C)CCCN1C(=O)CC2c3ccccc3C(C1=O)c1ccccc12)CCCN1C(=O)c2ccccc2C1=O | 6.40
54 | C[C@@H]1C(=O)N(CCC[N+](C)(C)CCCCCCC[N+](C)(C)CCCN2C(=O)[C@H](C)[C@@H](C)C2=O)C(=O)[C@H]1C | 4.92
55 | C[N+](C)(CCCCCCC[N+](C)(C)CCCN1C(=O)[C@H]2CC=CC[C@H]2C1=O)CCCN1C(=O)[C@H]2CC=CC[C@H]2C1=O | 5.66
56 | C[N+](C)(CCCCCCC[N+](C)(C)CCCN1C(=O)c2ccccc2C1=O)CCCN1C(=O)c2ccccc2C1=O | 6.41
57 | C[N+](C)(CCCCCC[N+](C)(C)CCCN1C(=O)c2ccccc2C1=O)CCCN1C(=O)CCC1=O | 5.01
58 | CCOC(=O)CCCCCC[N+](C)(C)CCCN1C(=O)c2ccccc2C1=O | 3.96
59 | C[N+](C)(CCCCCCC[N+](C)(C)CCCN1C(=O)CCC1=O)CCCN1C(=O)CCC1=O | 3.82
60 | O=C1c2ccccc2C(=O)N1CCCN(CCCCCCN(CCCN1C(=O)c2ccccc2C1=O)C1CCCCC1)C1CCCCC1 | 7.35

molecular target: T2, Corticosteroid-binding globulin (Homo sapiens) (UniProt P08185)
T2 sequence (whole entry): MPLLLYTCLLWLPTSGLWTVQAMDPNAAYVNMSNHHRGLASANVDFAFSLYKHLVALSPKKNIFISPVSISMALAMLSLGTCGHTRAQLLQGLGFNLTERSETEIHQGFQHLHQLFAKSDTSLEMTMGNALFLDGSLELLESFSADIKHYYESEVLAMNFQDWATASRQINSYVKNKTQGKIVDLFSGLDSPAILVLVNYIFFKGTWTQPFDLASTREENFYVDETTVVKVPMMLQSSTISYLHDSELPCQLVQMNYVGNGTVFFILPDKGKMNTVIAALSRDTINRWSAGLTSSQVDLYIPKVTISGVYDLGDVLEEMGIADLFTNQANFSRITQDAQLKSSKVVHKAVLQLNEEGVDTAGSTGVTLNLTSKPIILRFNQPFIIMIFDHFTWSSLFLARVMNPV
Description: Binding affinity towards corticosteroid binding globulin (CBG)

Row | SMILES | Log K
61 | C[C@]12CCC(=O)C=C1CC[C@@H]1[C@@H]2[C@@H](O)C[C@]2(C=O)[C@@H](C(=O)CO)CC[C@@H]12 | 6.28

molecular target: T2, Corticosteroid-binding globulin (Homo sapiens); remark: another data set of the same source
Description: Binding affinity towards corticosteroid-binding globulin (CBG)

Row | SMILES | Log K
62 | CC(=O)[C@H]1[C@H](C)C[C@H]2[C@@H]3CCC4=CC(=O)CC[C@]4(C)[C@H]3CC[C@@]21C | 7.12
63 | C[C@]12CC[C@@H]3c4ccc(O)cc4CC[C@H]3[C@@H]1CC[C@@H]2O | 5
64 | C[C@]12CC[C@H](O)CC1=CC[C@@H]1[C@@H]2CC[C@]2(C)C(=O)CC[C@@H]12 | 5
65 | C[C@]12C[C@H](O)[C@H]3[C@@H](CCC4=CC(=O)CC[C@@]43C)[C@@H]1CC[C@@H]2C(=O)CO | 7.88
66 | CC(=O)[C@H]1CC[C@H]2[C@@H]3CCC4=CC(=O)CC[C@]4(C)[C@H]3CC[C@]12C | 7.38
67 | CC(=O)[C@H]1CC[C@H]2[C@@H]3CCC4=CC(=O)CC[C@]4(C)[C@H]3C(=O)C[C@]12C | 6.78
68 | C[C@]12CC[C@@H]3c4ccc(O)cc4CC[C@H]3[C@@H]1C[C@@H](O)[C@@H]2O | 5
69 | C[C@]12CCC(=O)C=C1CC[C@@H]1[C@@H]2C(=O)C[C@@]2(C)[C@H]1CC[C@]2(O)C(=O)CO | 6.89
70 | C[C@]12CC[C@H]3[C@@H](CCC4=CC(=O)CC[C@@]43C)[C@@H]1CC[C@@H]2O | 6.72
71 | CC(=O)[C@H]1CC[C@H]2[C@@H]3CC=C4C[C@@H](O)CC[C@]4(C)[C@H]3CC[C@]12C | 5.25
72 | CC(=O)[C@@]1(O)CC[C@H]2[C@@H]3CCC4=CC(=O)CC[C@]4(C)[C@H]3CC[C@@]21C | 7.74
73 | C[C@]12CCC(=O)C=C1CC[C@@H]1[C@@H]2CC[C@@]2(C)[C@H]1CC[C@]2(O)C(=O)CO | 7.88
74 | C[C@]12C[C@@H](O)[C@H]3[C@@H](CCC4=CC(=O)CC[C@@]43C)[C@@H]1CC[C@@H]2C(=O)CO | 7.2
75 | CC(=O)[C@@]1(O)CC[C@H]2[C@@H]3CC[C@@H]4C[C@H](O)CC[C@]4(C)[C@H]3CC[C@@]21C | 5
76 | CC(=O)[C@H]1CC[C@H]2[C@@H]3CCC4=CC(=O)CC[C@@H]4[C@H]3CC[C@]12C | 6.82
77 | C[C@]12CC[C@H]3[C@@H](CCC4=CC(=O)CC[C@@]43C)[C@@H]1CC[C@@H]2C(=O)CO | 7.65
78 | CC(=O)[C@@]1(O)[C@H](O)C[C@H]2[C@@H]3CCC4=CC(=O)CC[C@]4(C)[C@H]3CC[C@@]21C | 6.25
79 | C[C@@H]1C[C@@]2(C)C(=CC1=O)CC[C@H]1[C@@H]3CC[C@](O)(C(=O)CO)[C@@]3(C)C[C@H](O)[C@@]12F | 5.8
80 | C[C@]12CC[C@H](O)C[C@@H]1CC[C@@H]1[C@@H]2CC[C@]2(C)[C@@H](O)CC[C@@H]12 | 5
81 | C[C@]12CCC(=O)C=C1CC[C@@H]1[C@@H]2[C@@H](O)C[C@@]2(C)[C@H]1CC[C@]2(O)C(=O)CO | 7.88
82 | C[C@]12CC[C@H]3[C@@H](CCC4=CC(=O)CC[C@@H]43)[C@@H]1CC[C@@H]2O | 6.14
83 | CC(=O)OCC(=O)[C@@]1(O)CC[C@H]2[C@@H]3CCC4=CC(=O)CC[C@]4(C)[C@H]3[C@@H](O)C[C@@]21C | 7.55
84 | C[C@]12CCC(=O)C=C1CC[C@@H]1[C@@H]2CC[C@]2(C)C(=O)CC[C@@H]12 | 5.76
85 | C[C@]12C=CC(=O)C=C1CC[C@@H]1[C@@H]2[C@@H](O)C[C@@]2(C)[C@H]1CC[C@]2(O)C(=O)CO | 7.51
